Data from patent publication US20240238423A9, “TETRAHYDROISOQUINOLINE HETEROBIFUNCTIONAL BCL-XL DEGRADERS” (Treeline Biosciences, Inc., priority 2022, published 2024).
Where two headings read alike, the source gives them in different places.

Target: T1, Human BCL-XL protein (N-terminal HiBiT tagged BCL-XL in HT1080 cells) (Homo sapiens, UniProt Q07817)
T1 construct: expressed in transfected cells; host or cells: HT-1080 (ATCC CCL-121), stably transduced with lentivirus pLV-UBC-N-HiBiT-BCL-XL-PGK-puro and selected with puromycin
T1 sequence (Q07817 whole entry): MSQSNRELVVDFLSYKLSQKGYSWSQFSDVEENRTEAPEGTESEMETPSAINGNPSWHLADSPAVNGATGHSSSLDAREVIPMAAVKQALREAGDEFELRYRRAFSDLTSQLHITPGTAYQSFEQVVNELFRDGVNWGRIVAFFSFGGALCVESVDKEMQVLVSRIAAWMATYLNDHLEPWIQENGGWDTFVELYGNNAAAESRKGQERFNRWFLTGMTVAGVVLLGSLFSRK
Test: HiBiT based degradation assay
Type: cell-based
Conditions: HT1080 cells expressing HiBiT-BCL-XL; for Ymin (24 h) / Ymin (6 h): BCL-XL degradation normalized with DMSO control; for DC50: BCL-XL degradation
Text: Human BCL-XL protein coding open reading frame fused with N-terminal HiBiT coding sequence was synthesized from Integrated DNA Technologies (IDT). Next, N-HiBiT-BCL-XL sequence was cloned into pLV-UBC-PGK-Puro, a lentivirus plasmid purchased from Vectorbuilder, to generate pLV-UBC-N-HiBiT-BCL-XL-PGK-puro. Lentiviral particles were generated from Lenti-X™ 293T cells (Clontech) by co-transfection of pLV-UBC-N-HiBiT-BCL-XL-PGK-puro plasmids and lentiviral packaging plasmid mix (Cellecta). HT-1080 [HT1080](ATCC CCL-121) cells were infected with the lentivirus, and HT1080 cells stably integrated with the lentiviral vectors were established by incubation with 1 μg/mL puromycin (Thermofisher).
HT1080 cells expressing N-terminal HiBiT tagged BCL-XL were dispensed into a 384-well plate pre-spotted with compounds at varying concentrations. Three thousand cells were seeded into each well in 40 μL of RPMI 1640 media. […] After incubation, luminescence was read on a PHERAstar FSX Plate Reader (BMG). BCL-XL degradation at each indicated concentration was normalized with the DMSO control. The BCL-XL degradation curves were plotted using a four-parameter logistic model. For compounds displaying hook effects, the curve fitting was performed using the bottom point of the hook curves (i.e., the point of Ymin) as the bottom plateau to calculate EC50.

| Ymin (24 h) | DC50 (24 h, read-out: EC50 (24 h)) | Ymin (6 h) | DC50 (6 h, read-out: EC50 (6 h)) | Compound |
| --- | --- | --- | --- | --- |
| A (Ymin < 50%) | < 100 nM |  |  | Cc1c(Oc2ccc(CCN3CCN(c4ccc5c(C6CCC(=O)NC6=O)nn(C)c5c4)CC3)cc2)cccc1-c1ccc(N2CCc3cccc(C(=O)Nc4nc5ccccc5s4)c3C2)nc1C(=O)O (stereo not shown) [Compound 208, 6-[8-(1,3-benzothiazol-2-ylcarbamoyl)-3,4-dihydro-1H-isoquinolin-2-yl]-3-[3-[4-[2-[4-[3-(2,6-dioxo-3-piperidyl)-1-methyl-indazol-6-yl]piperazin-1-yl]ethyl]phenoxy]-2-methyl-phenyl]pyridine-2-carboxylic acid] |
| A (Ymin < 50%) | < 100 nM |  |  | Cc1c(O[C@H]2CC[C@H](CCCCN3CCN(c4ccc5c(C6CCC(=O)NC6=O)nn(C)c5c4)CC3(C)C)CC2)cccc1-c1ccc(N2CCc3cccc(C(=O)Nc4nc5ccccc5s4)c3C2)nc1C(=O)O (stereo partly shown) [Compound 323a, 6-(8-(benzo[d]thiazol-2-ylcarbamoyl)-3,4-dihydroisoquinolin-2(1H)-yl)-3-(3-(((1s,4r)-4-(4-(4-(3-(2,6-dioxopiperidin-3-yl)-1-methyl-1H-indazol-6-yl)-2,2-dimethylpiperazin-1-yl)butyl)cyclohexyl)oxy)-2-methylphenyl)picolinic acid] |
| B (50% ≤ Ymin < 70%) | 100 to 1000 nM |  |  | Cc1c(OCCC[C@@H]2CCN(CC(=O)Nc3ccc4c(C5CCC(=O)NC5=O)nn(C)c4c3)CC2(F)F)cccc1-c1ccc(N2CCc3cccc(C(=O)Nc4nc5ccccc5s4)c3C2)nc1C(=O)O (stereo partly drawn) [Compound 193a, 6-(8-(benzo[d]thiazol-2-ylcarbamoyl)-3,4-dihydroisoquinolin-2(1H)-yl)-3-(3-(3-((4R)-1-(2-((3-(2,6-dioxopiperidin-3-yl)-1-methyl-1H-indazol-6-yl)amino)-2-oxoethyl)-3,3-difluoropiperidin-4-yl)propoxy)-2-methylphenyl)picolinic acid] |
| A (Ymin < 50%) | < 100 nM |  |  | Cc1cc2c(C3CCC(=O)NC3=O)nn(C)c2cc1N1CCN(CCCC[C@H]2CC[C@H](Oc3cccc(-c4ccc(N5CCc6cccc(C(=O)Nc7nc8ccccc8s7)c6C5)nc4C(=O)O)c3C)CC2)CC1 (stereo partly shown) [Compound 325a, 6-(8-(benzo[d]thiazol-2-ylcarbamoyl)-3,4-dihydroisoquinolin-2(1H)-yl)-3-(3-(((1s,4r)-4-(4-(4-(3-(2,6-dioxopiperidin-3-yl)-1,5-dimethyl-1H-indazol-6-yl)piperazin-1-yl)butyl)cyclohexyl)oxy)-2-methylphenyl)picolinic acid] |
| A (Ymin < 50%) | < 100 nM |  |  | Cc1c(O[C@H]2CC[C@H]([C@@H](C)CCN3CCN(c4ccc5c(C6CCC(=O)NC6=O)nn(C)c5c4)CC3)CC2)cccc1-c1ccc(N2CCc3cccc(C(=O)Nc4nc5ccccc5s4)c3C2)nc1C(=O)O (single isomer, unassigned) [Compound 310b] |
| B (50% ≤ Ymin < 70%) | < 100 nM | C (Ymin ≥ 70%) | 100 to 1000 nM | Cc1c(Oc2ccc(CC(F)(F)CN3CCN(c4ccc5c(C6CCC(=O)NC6=O)nn(C)c5c4)CC3)cc2)cccc1-c1ccc(N2CCc3cccc(C(=O)Nc4nc5ccccc5s4)c3C2)nc1C(=O)O (stereo not shown) [Compound 234, 6-[8-(1,3-benzothiazol-2-ylcarbamoyl)-3,4-dihydro-1H-isoquinolin-2-yl]-3-[3-[4-[3-[4-[3-(2,6-dioxo-3-piperidyl)-1-methyl-indazol-6-yl]piperazin-1-yl]-2,2-difluoro-propyl]phenoxy]-2-methyl-phenyl]pyridine-2-carboxylic acid] |
| A (Ymin < 50%) | < 100 nM |  |  | Cc1c(OCCCN2CCN(CC3CCN(c4ccc5c(C6CCC(=O)NC6=O)nn(C)c5c4)CC3)CC2)cccc1-c1ccc(N2CCc3cccc(C(=O)Nc4nc5ccccc5s4)c3C2)nc1C(=O)O (stereo not shown) [Compound 189, 6-(8-(benzo[d]thiazol-2-ylcarbamoyl)-3,4-dihydroisoquinolin-2(1H)-yl)-3-(3-(3-(4-((1-(3-(2,6-dioxopiperidin-3-yl)-1-methyl-1H-indazol-6-yl)piperidin-4-yl)methyl)piperazin-1-yl)propoxy)-2-methylphenyl)picolinic acid] |
| A (Ymin < 50%) | < 100 nM |  |  | Cc1c(O[C@H]2CC[C@H](CCCN3CCN(c4cccc5c(C6CCC(=O)NC6=O)nn(C)c45)C[C@H]3C)CC2)cccc1-c1ccc(N2CCc3cccc(C(=O)Nc4nc5ccccc5s4)c3C2)nc1C(=O)O (stereo partly drawn) [Compound 275a, 6-(8-(benzo[d]thiazol-2-ylcarbamoyl)-3,4-dihydroisoquinolin-2(1H)-yl)-3-(3-(((1S,4r)-4-(3-((2R)-4-(3-(2,6-dioxopiperidin-3-yl)-1-methyl-1H-indazol-7-yl)-2-methylpiperazin-1-yl)propyl)cyclohexyl)oxy)-2-methylphenyl)picolinic acid] |
| B (50% ≤ Ymin < 70%) | < 100 nM |  |  | Cc1c(OCCCC2CCN(Cc3ccc4c(C5CCC(=O)NC5=O)nn(C)c4c3)CC2)cccc1-c1ccc(N2CCc3cccc(C(=O)Nc4nc5ccccc5s4)c3C2)nc1C(=O)O (stereo not shown) [Compound 304, 6-(8-(benzo[d]thiazol-2-ylcarbamoyl)-3,4-dihydroisoquinolin-2(1H)-yl)-3-(3-(3-(1-((3-(2,6-dioxopiperidin-3-yl)-1-methyl-1H-indazol-6-yl)methyl)piperidin-4-yl)propoxy)-2-methylphenyl)picolinic acid] |
| B (50% ≤ Ymin < 70%) | 1000 to 10000 nM | B (50% ≤ Ymin < 70%) | 100 to 1000 nM | Cc1c(OCCOc2ccc(CC(=O)Nc3cccc4c(C5CCC(=O)NC5=O)nn(C)c34)cc2)cccc1-c1ccc(N2CCc3cccc(C(=O)Nc4nc5ccccc5s4)c3C2)nc1C(=O)O (stereo not shown) [Compound 118, 6-[8-(1,3-benzothiazol-2-ylcarbamoyl)-3,4-dihydro-1H-isoquinolin-2-yl]-3-[3-[2-[4-[2-[[3-(2,6-dioxo-3-piperidyl)-1-methyl-indazol-7-yl]amino]-2-oxo-ethyl]phenoxy]ethoxy]-2-methyl-phenyl]pyridine-2-carboxylic acid] |
| A (Ymin < 50%) | < 100 nM |  |  | Cc1c(O[C@H]2CC[C@H](CCCN3CCN(c4ccc5c(C6CCC(=O)NC6=O)nn(C)c5c4)C[C@@H]3C)CC2)cccc1-c1ccc(N2CCc3cccc(C(=O)Nc4nc5ccccc5s4)c3C2)nc1C(=O)O (stereo partly drawn) [Compound 273b, 6-(8-(benzo[d]thiazol-2-ylcarbamoyl)-3,4-dihydroisoquinolin-2(1H)-yl)-3-(3-(((1R,4r)-4-(3-((2S)-4-(3-(2,6-dioxopiperidin-3-yl)-1-methyl-1H-indazol-6-yl)-2-methylpiperazin-1-yl)propyl)cyclohexyl)oxy)-2-methylphenyl)picolinic acid] |

| Compound | Ymin (24 h) | DC50 (24 h, read-out: EC50 (24 h)) | Ymin (6 h) | DC50 (6 h, read-out: EC50 (6 h)) |
| --- | --- | --- | --- | --- |
| Cc1c(OCCCC[C@H]2CCCN(CC(=O)Nc3ccc4c(C5CCC(=O)NC5=O)nn(C)c4c3)C2)cccc1-c1ccc(N2CCc3cccc(C(=O)Nc4nc5ccccc5s4)c3C2)nc1C(=O)O (stereo partly drawn) [Compound 202a, 6-[8-(1,3-benzothiazol-2-ylcarbamoyl)-3,4-dihydro-1H-isoquinolin-2-yl]-3-[3-[4-[(3S)-1-[2-[[3-(2,6-dioxo-3-piperidyl)-1-methyl-indazol-6-yl]amino]-2-oxo-ethyl]-3-piperidyl]butoxy]-2-methyl-phenyl]pyridine-2-carboxylic acid] | A (Ymin < 50%) | < 100 nM |  |  |
